What was measured:
ICR mice = test: Pulmonary toxicity (pulmonary fibrosis) in mice, intratracheal instillation; format: in vivo; details: 16 μg/50 μl/mouse intratracheally, sacrificed 4 weeks after instillation; for Grade: total score of pulmonary fibrosis/total number of samples: score 0-6 points
Procedure: Male 15 weeks old ICR mice were used. Sixteen μg/50 μl/mouse of each test sample was intratracheally instilled. The mice were sacrificed 4 weeks after instillation to examine the incidence and grade of pulmonary fibrosis. The evaluation was made by comparing the number of administered mice suffering from pulmonary fibrosis and the grade of the disease.
(§1) In Tables 4A and 4B, the grade was numerically rated as follows:
(§2) 1 point: Accumulation of exudate in pulmonary alveoli and fibrosis-like change in alveolar septum.
(§3) 2 points: Fibrosis in several areas.
(§4) 4 points: Scattered fibrosis.
(§5) 6 points: Fibrosis in more than two-thirds of the total area.

Bacillus subtilis = test: Antimicrobial activity, agar plate-cylinder method; format: cell-based; details: Cu-free form; bleomycin A2 (Cu-free form) standard assumed 1,000 mcg/mg
Procedure: (1) Antimicrobial activity against Mycobacterium smegmatis ATCC 697 and Bacillus subtilis.
(§6) The activity was assayed against the above test microorganisms by the method of agar plate-cylinder, assuming the potency of bleomycin A2 (Cu-free form), used as standard, to be 1,000 mcg/mg.

[1] = tested on: Mycobacterium smegmatis ATCC 607; test: Antimicrobial activity, agar plate-cylinder method; format: cell-based; details: Cu-free form; bleomycin A2 (Cu-free form) standard assumed 1,000 mcg/mg
Procedure: as §6

Hela S3 cells = test: Growth inhibitory activity against Hela S3 cells; format: cell-based; details: Cu-free form; Hela S3, 3 days incubation with compound
Procedure: The percentage growth inhibition was calculated using the equation: […] wherein A is the ultimate number of cells on the third day from the addition of a test sample, B is the ultimate number of cells in the control (without the addition of test sample), and C is the number of cells on the day of addition of the test sample.

ICR strain mice = test: Pulmonary toxicity (pulmonary fibrosis) in mice, intraperitoneal injection; format: in vivo; details: 5 mg/kg i.p. once a day for 10 days; for Grade of pulmonary fibrosis, % / Incidence of pulmonary fibrosis, % / Incidence: number of mice suffering from pulmonary fibrosis / Grade: total score of pulmonary fibrosis/total number of test animal: autopsy after 5 weeks; for Incidence: number of mice suffering from pulmonary fibrosis: affected/total mice; for Grade: total score of pulmonary fibrosis/total number of test animal: score 0-6 points; for Grade of pulmonary fibrosis, Ratio / Incidence of pulmonary fibrosis, Ratio: reference of the ratio not stated
Procedure: (3) Pulmonary toxicity (pulmonary fibrosis) in mice.
ICR strain mice (male; 15 weeks old; 9 mice per group) were used. Each mouse was administered with a daily dose of 5 mg/kg of the test sample by intraperitoneal injection, once a day, for 10 consecutive days. After completion of the predetermined administration, the mice were kept for 5 weeks under observation, then slaughtered, and autopsied to examine the incidence and grade of pulmonary fibrosis. The evaluation was made by comparing the number of administered mice suffering from pulmonary fibrosis and the grade of the disease.
as §1, §2, §3, §4, §5

[2] = tested on: Lymphocytic leukemia P-388; test: In vivo antitumor activity, murine lymphocytic leukemia P-388; details: BDF1-SLC mice, i.p. transplant, once daily for 9 days, 30 days observation; T/C more than 130 effective
Procedure: The following data with respect to the testing of a group of the presently claimed substances in vivo according to a standard test method involving murine lymphocytic leukemia P-388 is presented to lend further assurance as to the utility of the compounds as inhibitors of mammalian tumors.
Lymphocytic leukemia P-388 cells (1×10^5 /0.2 ml) were transplanted intraperitoneally into male BDF1 -SLC mice (5 mice/group). Each of the compounds of this invention was diluted with physiological saline to various concentrations. Each dilution was administered at a dose of 0.1 ml/10 g of body weight once daily for 9 days, starting on the day after the day of the transplantation. The mice of the control group were administered physiological saline.
The average number of days that the group receiving the compound of this invention survived was calculated. The figure obtained was divided by the average number of survival days for the control group, and was multiplied by 100 (T/C (%)).
T/C value more than 130 was considered to be effective.

| Compound | Grade of pulmonary fibrosis, % (ICR mice) [%] | Incidence of pulmonary fibrosis, % (ICR mice) [%] | Incidence: number of mice with pulmonary fibrosis/number of mice (ICR mice) | Grade: total score of pulmonary fibrosis/total number of samples (ICR mice) | Antimicrobial potency of Cu--free compound, against Bacillus subtilis (Bacillus subtilis) [mcg potency per mg] | Antimicrobial potency of Cu--free compound, against Mycobacterium smegmatis ATCC 607 [1] [mcg potency per mg] | 50% growth inhibition concentration (ID50) of Cu--free compound against cultured Hela cell (Hela S3 cells) [mg/L] | Grade of pulmonary fibrosis, % (ICR strain mice) [%] | Incidence of pulmonary fibrosis, % (ICR strain mice) [%] | Incidence: number of mice suffering from pulmonary fibrosis (ICR strain mice) | Grade: total score of pulmonary fibrosis/total number of test animal (ICR strain mice) | Grade of pulmonary fibrosis, Ratio (ICR strain mice) | Incidence of pulmonary fibrosis, Ratio (ICR strain mice) | Max. T/C on Mouse Lymphocytic Leukemia P 388 [2] [%] |
| --- | --- | --- | --- | --- | --- | --- | --- | --- | --- | --- | --- | --- | --- | --- |
| Cc1c(N)nc(C(CC(N)=O)NCC(N)C(N)=O)nc1C(=O)NC(C(=O)NC(C)C(O)C(C)C(=O)NC(C(=O)NCCc1nc(-c2nc(C(=O)NCCCN(C)CCCNCc3ccc(Cl)cc3Cl)cs2)cs1)C(C)O)C(OC1OC(CO)C(O)C(O)C1OC1OC(CO)C(O)C(OC(N)=O)C1O)c1cnc[nH]1 (stereo not shown) [compound 8, 3-{N--Methyl-N--[3'-(o,p-dichlorobenzylamino)propyl]amino}propylaminoBLM] | 25 | 25 | 2/8 | 6/24 | 2940 | 13013 | 1.05 | 7 | 11 | 1/9 | 2/27 | 0.08 | 0.18 |  |
| Cc1c(N)nc(C(CC(N)=O)NCC(N)C(N)=O)nc1C(=O)NC(C(=O)NC(C)C(O)C(C)C(=O)NC(C(=O)NCCc1nc(-c2nc(C(=O)NCCCN(C)CCCNC(C)c3ccc(Cl)cc3)cs2)cs1)C(C)O)C(OC1OC(CO)C(O)C(O)C1OC1OC(CO)C(O)C(OC(N)=O)C1O)c1cnc[nH]1 (stereo not shown) [compound 14, 3-{N--Methyl-N--[3'-(1"-p-chlorophenylethylamino)propyl]amino}propylaminoBLM] | 24 | 57 | 4/7 | 5/21 | 5459 | 16959 | 0.52 | 11 | 22 | 2/9 | 3/27 | 0.13 | 0.35 |  |
| Cc1c(N)nc(C(CC(N)=O)NCC(N)C(N)=O)nc1C(=O)NC(C(=O)NC(C)C(O)C(C)C(=O)NC(C(=O)NCCc1nc(-c2nc(C(=O)NCCCN(C)CCCNCC(c3ccccc3)c3ccccc3)cs2)cs1)C(C)O)C(OC1OC(CO)C(O)C(O)C1OC1OC(CO)C(O)C(OC(N)=O)C1O)c1cnc[nH]1 (stereo not shown) [compound 17, 3-{N--Methyl-N--[3'-(2",2"-diphenylethylamino)propyl]amino}propylaminoBLM] | 7 | 22 | 2/9 | 2/27 | 3554 | 21084 | 1.00 | 7 | 20 | 1/5 | 1/15 | 0.08 | 0.32 |  |
| Cc1c(N)nc(C(CC(N)=O)NCC(N)C(N)=O)nc1C(=O)NC(C(=O)NC(C)C(O)C(C)C(=O)NC(C(=O)NCCc1nc(-c2nc(C(=O)NCCC[N+](C)(C)CCCNCC3CCCCCCC3)cs2)cs1)C(C)O)C(OC1OC(CO)C(O)C(O)C1OC1OC(CO)C(O)C(OC(N)=O)C1O)c1cnc[nH]1 (stereo not shown) [compound 36, 3-{N,N--Dimethyl-N--[3'-(cyclooctylmethylamino)propyl]amino}propylaminoBLM] |  |  |  |  | 20000 | 21840 | 0.29 |  |  |  |  |  |  | 150 |
| Cc1c(N)nc(C(CC(N)=O)NCC(N)C(N)=O)nc1C(=O)NC(C(=O)NC(C)C(O)C(C)C(=O)NC(C(=O)NCCc1nc(-c2nc(C(=O)NCCCN(CCCN(Cc3ccccc3)Cc3ccccc3)Cc3ccccc3)cs2)cs1)C(C)O)C(OC1OC(CO)C(O)C(O)C1OC1OC(CO)C(O)C(OC(N)=O)C1O)c1cnc[nH]1 (stereo not shown) [Compound No. 40, 3-{N--benzyl-N--[3'-(dibenzylamino)propyl]amino}propylaminoBLM] |  |  |  |  | 479 | 4450 | 1.90 |  |  |  |  |  |  | 154 |
| COc1ccc(CNCCCN(C)CCCNC(=O)c2csc(-c3csc(CCNC(=O)C(NC(=O)C(C)C(O)C(C)NC(=O)C(NC(=O)c4nc(C(CC(N)=O)NCC(N)C(N)=O)nc(N)c4C)C(OC4OC(CO)C(O)C(O)C4OC4OC(CO)C(O)C(OC(N)=O)C4O)c4cnc[nH]4)C(C)O)n3)n2)c(OC)c1 (stereo not shown) [compound 13, 3-{N--Methyl-N--[3'-(o,p-dimethoxybenzylamino)propyl]amino}propylaminoBLM] | 15 | 22 | 2/9 | 4/27 | 5312 | 5351 | 1.30 | 11 | 33 | 2/6 | 2/18 | 0.13 | 0.53 |  |
| Cc1c(N)nc(C(CC(N)=O)NCC(N)C(N)=O)nc1C(=O)NC(C(=O)NC(C)C(O)C(C)C(=O)NC(C(=O)NCCc1nc(-c2nc(C(=O)NCCCN(C)CCCNCc3ccc(Cl)c(Cl)c3)cs2)cs1)C(C)O)C(OC1OC(CO)C(O)C(O)C1OC1OC(CO)C(O)C(OC(N)=O)C1O)c1cnc[nH]1 (stereo not shown) [compound 7, 3-{N--Methyl-N--[3'-(m,p-dichlorobenzylamino)propyl]amino}propylaminoBLM] | 13 | 30 | 3/10 | 4/30 | 4263 | 10601 | 0.82 | 4 | 11 | 1/9 | 1/27 | 0.05 | 0.18 |  |
